Assay results published in PMC9229949 (Pharmaceutics, 2022).
Where two headings read alike, the source gives them in different places.

Legend:
[1] = system: 3D7 P. falciparum gametocytes stage V; assay: P. falciparum mature gametocytes (stage V), luciferase viability; format: cell-based; conditions: 3D7 strain, 72 h, mean ± S.D. of one experiment, read-out: IC50, gametocytes of P. falciparum, Stage V
Description: The activity of compounds was assessed against young gametocytes (stages I/III) and against mature gametocytes (stage V). […] A volume of 100 μL of 3D7elo1-pfs16-CBG99 gametocytes of 3D7 P. falciparum at 0.5–1% parasitemia and 2% hematocrit were dispensed. […] Luciferase activity was used to determine gametocytes viability. A volume of 100 µL of culture medium was removed from each well to increase hematocrit; 70 µL of resuspended culture was transferred to a black 96-well plate; 70 µL of D-luciferin (1 mM in citrate buffer 0.1 M, pH 5.5) was added. Luminescence measurements were performed after 10 min with 500 ms integration time. The IC50 was extrapolated from nonlinear regression analysis of the concentration–response curve.

[2] = target: T1, human TrxR (hTrxR) (Homo sapiens, UniProt Q16881); assay: Inhibition of enzymatic activity of recombinant human TrxR; format: biochemical; conditions: recombinant enzyme, 15 min preincubation; mean of one experiment; read-out: IC50 for TrxRs, Human (Sec)
T1 construct: made in house
T1 sequence (Q16881 151-649 limits assumed): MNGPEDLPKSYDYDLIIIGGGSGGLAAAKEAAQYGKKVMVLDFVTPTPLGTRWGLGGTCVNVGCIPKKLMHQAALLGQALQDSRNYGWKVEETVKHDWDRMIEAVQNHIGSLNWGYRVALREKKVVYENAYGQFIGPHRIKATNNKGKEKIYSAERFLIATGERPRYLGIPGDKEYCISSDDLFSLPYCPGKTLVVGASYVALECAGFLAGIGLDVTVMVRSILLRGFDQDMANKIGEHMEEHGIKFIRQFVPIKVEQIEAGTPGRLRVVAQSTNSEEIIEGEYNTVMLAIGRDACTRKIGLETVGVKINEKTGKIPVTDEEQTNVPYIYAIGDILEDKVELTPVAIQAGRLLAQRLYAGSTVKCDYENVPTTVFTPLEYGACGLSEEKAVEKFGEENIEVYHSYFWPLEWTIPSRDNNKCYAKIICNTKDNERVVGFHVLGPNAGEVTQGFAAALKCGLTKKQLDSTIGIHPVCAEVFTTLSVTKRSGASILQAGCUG
Description: (§1) The codon-optimized sequence for PfTrxR [27, 28] was synthesized and subcloned into pET-15b (Genscript) and expressed and purified as for human glutathione reductase (hGR). Recombinant Schistosoma mansoni (S. mansoni) thioredoxin glutathione reductase (SmTGR), human TrxR (hTrxR), and hGR proteins were expressed and purified as described. TrxR and TGR enzyme inhibition assays were performed in triplicate at 25 °C in 0.1 M potassium phosphate (pH 7.4), 10 mM EDTA, 100 µM NADPH and 0.01% Tween-20. SmTGR (4 nM), hTrxR (4 nM), and PfTrxR (50 nM) were preincubated with the compounds for 15 min. The reaction was started with addition of an equal volume of 5,5′-dithiobis(2-nitrobenzoic acid) (6 mM) and NADPH (100 µM). The increase in A412 during the first 3 min was recorded. […]. The reactions were performed in triplicate. The IC50s were calculated in Prism version 5.01.

[3] = target: T2, S. mansoni thioredoxin-glutathione reductase (SmTGR) (Schistosoma mansoni, UniProt Q962Y6); assay: Inhibition of enzymatic activity of recombinant S. mansoni thioredoxin glutathione reductase; format: biochemical; conditions: 15 min preincubation, mean of one experiment, read-out: IC50 for TrxRs, S. mansoni (Sec)
T2 construct: made in house
T2 sequence (Q962Y6 1-598): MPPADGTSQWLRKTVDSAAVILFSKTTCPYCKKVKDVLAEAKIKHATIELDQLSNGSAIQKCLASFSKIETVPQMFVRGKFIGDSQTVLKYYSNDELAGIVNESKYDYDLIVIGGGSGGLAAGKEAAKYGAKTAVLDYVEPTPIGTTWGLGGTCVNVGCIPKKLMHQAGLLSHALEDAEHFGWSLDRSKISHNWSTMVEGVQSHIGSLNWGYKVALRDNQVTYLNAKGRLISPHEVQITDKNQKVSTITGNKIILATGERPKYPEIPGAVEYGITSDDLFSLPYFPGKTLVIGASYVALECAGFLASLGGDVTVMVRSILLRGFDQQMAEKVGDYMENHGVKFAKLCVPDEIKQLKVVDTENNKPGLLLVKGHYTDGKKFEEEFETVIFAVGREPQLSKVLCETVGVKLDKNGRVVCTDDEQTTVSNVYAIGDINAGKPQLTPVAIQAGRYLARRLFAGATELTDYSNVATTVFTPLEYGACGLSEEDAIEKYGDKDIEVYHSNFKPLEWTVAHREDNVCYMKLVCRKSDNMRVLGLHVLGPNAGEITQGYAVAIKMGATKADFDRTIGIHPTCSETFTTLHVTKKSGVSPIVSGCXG
Description: as §1

[4] = system: P. berghei sporozoites in Huh-7 cells; assay: P. berghei hepatic stages: infection of Huh-7 cells by luciferase-expressing sporozoites; format: cell-based
Description: Huh-7 cells at 1.0 × 10^4 per well were seeded in 96-well plates the day before drug treatment and infection. The culture medium was replaced by infection medium (culture medium supplemented with gentamicin (50 μg/mL) and amphotericin B (0.8 μg/mL)) containing the appropriate concentration of each compound for approximately 1 h prior to infection with sporozoites of firefly luciferase-expressing P. berghei, freshly obtained through the disruption of salivary glands of infected female Anopheles stephensi mosquitoes. An amount of the DMSO solvent equivalent to that present in the highest compound concentration was used as negative control. Sporozoite addition was followed by centrifugation at 1800× g for 5 min. and parasite infection load was measured 48 h after infection by using a bioluminescence assay (Biotium, Hayward, CA, USA). The effect of the compounds on the viability of Huh-7 cells was assessed by performing the AlamarBlue (Invitrogen, Waltham, MA, USA) assay according to the manufacturer’s protocol.

Row | SMILES | IC50 ([1]; Plasmodium falciparum) [µM] | IC50 [2] [µM] | IC50 [3] [µM] | inhibition at 10 µM ([4]; Plasmodium berghei, Huh-7, 48 h, read-out: Sporozoites (Inhibition of Infection, %)) [%] | IC50 [1] [µM] | inhibitory activity for the hepatic stages ([4]; up to 10 μM)
1 | CCN(CC)Cc1cc(Nc2ccnc3cc(Cl)ccc23)ccc1O [Amodiaquine (AQ), amodiaquine] | 23.6 ± 5 | 26.5 | 42 | 71 | – | –
2 | [Cl][Au].c1ccc(P(c2ccccc2)c2ccccc2)cc1 [[AuClPPh3]] | – | 0.00065 | 0.0005 | – | 15.2 ± 2.6 | no inhibitory activity
